Reference: patent EP4095134A1, “POLYCYCLIC COMPOUNDS FOR THE TREATMENT OF NEUROLOGICAL INDICATIONS” (UCL Business Ltd, priority 2021, dated 2022)
Where two headings read alike, the source gives them in different places. Values belong to the molecule of their own block, whether it stands above or below them.

Tests used:
P2Y1 receptor = target: T1, P2Y1 receptor (Homo sapiens, UniProt P47900); test: P2Y1 IP1 accumulation HTRF assay, antagonism of agonist MRS2365 in stably transfected cells; type: cell-based
T1 construct: expressed in transfected cells
T1 sequence (P47900 whole entry): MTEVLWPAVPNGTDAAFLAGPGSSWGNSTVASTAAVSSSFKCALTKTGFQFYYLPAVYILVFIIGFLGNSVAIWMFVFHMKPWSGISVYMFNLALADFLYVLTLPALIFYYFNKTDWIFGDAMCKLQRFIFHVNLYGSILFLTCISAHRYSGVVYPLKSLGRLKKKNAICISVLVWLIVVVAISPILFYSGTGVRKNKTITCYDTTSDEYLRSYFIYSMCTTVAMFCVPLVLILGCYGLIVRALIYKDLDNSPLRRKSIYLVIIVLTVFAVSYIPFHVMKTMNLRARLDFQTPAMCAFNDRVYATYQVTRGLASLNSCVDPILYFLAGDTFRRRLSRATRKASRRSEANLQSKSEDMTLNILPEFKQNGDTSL
In short: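 HTRF IP1 accumulation in stably P2Y1-overexpressing cells, plated the day before. Compounds pre-incubated 1 hour (10-point semi-log curve from 10µM, 0.1% DMSO), then 5nM MRS2365 added for 60 minutes, both at 37°C / 5% CO2. IP1 interpolated from standard curve; IC50 from N ≥ 4 runs.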

[1] = CNS penetration, single compound oral or intravenous administration, brain and plasma by LC-MS/MS; type: in vivo, C57B16/J mice; details: mouse
Procedure: To assess pharmacokinetic properties and CNS penetration of compounds, compounds were administered to mice via the oral and intravenous routes. For oral dosing, compound solutions were prepared in a suitable vehicle (such as 10% PEG400/5% Kolliphor EL/85% H2O) at a concentration of 0.5mg/mL. Compounds were dosed via oral gavage at a dosing volume of 10mL/kg to C57B16/J mice, for a final dose of 5mg/kg. Animals were culled at 8 timepoints to 24 hours, and plasma and brain samples collected for bioanalysis.
For intravenous dosing, compound solutions were prepared in a suitable vehicle (such as 10% DMSO/90%HPCD (20%)) at a concentration of 0.2mg/mL. Compound was administered via the intravenous route in a dosing volume of 5mL/kg, for a final dose of 1mg/kg. Animals were culled at various timepoints out to 24 hours, and plasma and brain collected for bioanalysis.
For bioanalysis, compound was prepared in DMSO at a final concentration of 1mg/mL. Analytical standards were prepared from the initial 1mg/mL stock solution of compound, with a 12-point standard curve range from 0.5ng/mL to 2000ng/mL, with independent quality control tests from 1ng/mL to 1000ng/mL run to validate the standards. All standards and QC samples were matrix matched to eliminate possible suppression. Plasma samples were prepared with a 1:10 dilution in plasma. Brain tissue samples were homogenized in 0.1M phosphate buffer solution at a ratio of 1:4, and used without further dilution. Dose solutions were diluted in a control matrix to a relative concentration that fell on the standard curve. Cold acetonitrile containing internal standard was added to all samples, standards, dose samples and QC samples; samples were then centrifuged for 30 minutes at 4000rpm. After centrifugation, supernatant was transferred to a new 96-well plate, diluted with an equal volume of water and mixed thoroughly before LC-MS analysis.
Supernatents were analysed by LC-MS/MS. From the analysis data a response ratio was obtained using the formula Response Ratio = Test Peak Area/Internal Standard Peak Area. From the standard curve, the test peak area was converted to concentration of test compound.
(§1) To establish CNS penetration, the ratio of the concentration of each compound in the […] was assessed.

[2] = CNS penetration, intravenous cassette dosing, brain and plasma by LC-MS/MS; type: in vivo, C57B16/J mice; details: mouse, iv (0.4 mg/kg), t = 2 hr
Procedure: To assess penetration of compounds into the mouse central nervous system, intravenous pharmacokinetic studies were undertaken in C57B16/J mice. In each study, up to five compounds were formulated in a vehicle comprising DMSO, Kolliphor EL and HPCD (20% w/v) to a final dose for each compound of 0.4mg/kg. Compounds were then combined into a single dosing solution and administered together via the intravenous route into 24 mice. Total compound dose administered to each mouse was 2mg/kg. Mice were culled at 0.08, 0.25, 0.5, 1, 2, 4, 8 and 24 hours post dosing, and brain and plasma collected for bioanalysis.
For bioanalysis, compounds were prepared in DMSO and aliquoted together to ensure a final concentration of 1mg/mL per compound in DMSO. Analytical standards were prepared from the initial 1mg/mL stock solution of compound, with a 12-point standard curve range from 0.5ng/mL to 2000ng/mL, with independent quality control tests from 1ng/mL to 1000ng/mL run to validate the standards. All standards and QC samples were matrix matched to eliminate possible suppression. Plasma samples were prepared with a 1:10 dilution in plasma. […]
Supernatents were analysed by LC-MS/MS. […]
as §1

[3] = Example 2 table, as for example 1
[4] = racemic, 5nM MRS2365, values rounded to nearest whole number, N >= 4
[5] = single enantiomer, 5nM MRS2365, values rounded to nearest whole number
[6] = brain, 1 mg/kg, iv, single compound, AUC0-24h, read-out: CNS penetration: total brain to plasma ratio AUC0-24h iv
[7] = brain, 1 mg/kg, iv, single compound, t = 2 h, read-out: CNS penetration: total brain to plasma ratio @ t =2 h iv
[8] = brain, po, p.o (5 mg/kg), AUC 0-24 h, read-out: CNS penetration: total brain to plasma ratio AUC 0-24 h

- IC50 (P2Y1 receptor; [3]): 84 nM
- Kp ([1]; C57B16/J, brain and plasma, 1 mg/kg, iv, single compound, AUC0-24h, read-out: CNS penetration: total brain to plasma ratio AUC0-24h iv): 2.1
- Kp at 2 h ([1]; C57B16/J, brain and plasma, 1 mg/kg, iv, single compound, t = 2 h, read-out: CNS penetration: total brain to plasma ratio @ t =2 h iv): 1.7
- Kp ([1]; C57B16/J, brain and plasma, oral, p.o (5 mg/kg), AUC 0-24 h, read-out: CNS penetration: total brain to plasma ratio AUC 0-24 h): 1.9
SMILES: O=C(Nc1ccc(OC(F)(F)F)cc1)Nc1cccnc1Oc1ccccc1C1(C(F)(F)F)CCO1 (stereo not drawn)

- IC50 (P2Y1 receptor; [4]): 1440 nM
SMILES: Fc1ccc(Oc2ncccc2Nc2nc3ccc(OC(F)(F)F)cc3[nH]2)c(C2(C(F)(F)F)CCO2)c1 (racemic) [S121]

- IC50 (P2Y1 receptor; [3]): 39 nM
- Kp at 2 h ([1]; C57B16/J, brain and plasma, po, p.o (5 mg/kg), value at t = 2h, read-out: CNS penetration: total brain to plasma ratio po (value at t = 2h)): 2.4
SMILES: CN1CC[C@@]1(c1ccccc1Oc1ncccc1NC(=O)Nc1ccc(OC(F)(F)F)cc1)C(F)(F)F (single isomer, unassigned)

- IC50 (P2Y1 receptor; [5]): 26 nM
SMILES: CN1CC[C@@]1(c1ccccc1Oc1ncccc1NC(=O)Nc1ccc(OC(F)(F)F)cc1F)C(F)(F)F (single isomer, unassigned) [S98]

- IC50 (P2Y1 receptor; [5]): 29 nM
SMILES: Cc1ccc(NC(=O)Nc2ccc(C(C)(C)C(F)(F)F)cc2)c(Oc2ccccc2[C@@]2(C(F)(F)F)CCO2)n1 (single isomer, unassigned) [S99]

- IC50 (P2Y1 receptor; [5]): 44 nM
SMILES: O=C(Nc1cc(F)c(Cl)cc1F)Nc1cccnc1Oc1ccccc1[C@@]1(C(F)(F)F)CCO1 (single isomer, unassigned) [S100]

- IC50 (P2Y1 receptor; [5]): 52 nM
SMILES: CN1CC[C@]1(c1ccccc1Oc1ncccc1NC(=O)Nc1ccc(OC(F)(F)F)cc1F)C(F)(F)F (single isomer, unassigned) [S102]

- IC50 (P2Y1 receptor; [5]): 18 nM
SMILES: Cc1ccc(NC(=O)Nc2ccc(C(C)C)cc2F)c(Oc2ccccc2[C@@]2(C(F)(F)F)CCO2)n1 (single isomer, unassigned) [S122]

- CNS penetration: total brain to plasma ratio [2]: BLLQ^d iv
SMILES: Cc1ccc(NC(=O)Nc2ccc(OC(F)(F)F)cc2)c(Oc2ccccc2C(C)(C)C)n1 [RS2, 1-(2-(2-(tert-butyl)phenoxy)-6-methylpyridin-3-yl)-3-(4-(trifluoromethoxy)phenyl)urea]

- IC50 (P2Y1 receptor; [3]): 33 nM
- CNS penetration: total brain to plasma ratio [2]: BLLQ^d iv
SMILES: CC1(C)CN(c2ccccc2NC(=O)Nc2ccc(OC(F)(F)F)cc2)c2c(O)ccc(-c3ccc(Cl)cc3)c21 [RS 1, 1-(2-(4-(4-chlorophenyl)-7-hydroxy-3,3-dimethylindolin-1-yl)phenyl)-3-(4-(trifluoromethoxy)phenyl)urea, reference compound]

- IC50 (P2Y1 receptor; [5]): 113 nM
SMILES: O=C(Nc1ccc(OC(F)(F)F)cc1F)Nc1cccnc1Oc1ccccc1[C@]1(C(F)(F)F)CCO1 [S107]

- IC50 (P2Y1 receptor; [5]): 38 nM
SMILES: O=C(Nc1ccc(OC(F)(F)F)cc1F)Nc1cccnc1Oc1ccccc1[C@@]1(C(F)(F)F)CCO1 [S112]

- IC50 (P2Y1 receptor; [5]): 39 nM
SMILES: CN1CC[C@@]1(c1ccccc1Oc1ncccc1NC(=O)Nc1ccc(OC(F)(F)F)cc1)C(F)(F)F [S115]

- IC50 (P2Y1 receptor; [5]): 33 nM
SMILES: Cc1ccc(NC(=O)Nc2ccc(C(C)C)cc2F)c(Oc2ccccc2[C@]2(C(F)(F)F)CCO2)n1 [S123]

Further lines, the molecule ahead of its results:

SMILES: Cc1c(Oc2ncccc2NC(=O)Nc2ccc(OC(F)(F)F)cc2)cccc1N1CC(C)(C)C1 [S93]
- IC50 (P2Y1 receptor; [4]): 683 nM

SMILES: CC(C)(c1ccc(NC(=O)Nc2cccnc2Oc2ccccc2[C@@]2(C(F)(F)F)CCO2)cc1)C(F)(F)F [S101]
- IC50 (P2Y1 receptor; [5]): 48 nM

SMILES: O=C(Nc1cccnc1Oc1ccccc1[C@@]1(C(F)(F)F)CCO1)Nc1ccc(Cl)c(F)c1F [S108]
- IC50 (P2Y1 receptor; [5]): 125 nM

SMILES: O=C(Nc1ccc(OC(F)(F)F)cc1)Nc1cccnc1Oc1ccccc1[C@@]1(C(F)(F)F)CCO1 [S110]
- IC50 (P2Y1 receptor; [5]): 68 nM

SMILES: O=C(Nc1ccc(OC(F)(F)F)cc1)Nc1cccnc1Oc1ccccc1[C@]1(C(F)(F)F)CCO1 [S111]
- IC50 (P2Y1 receptor; [5]): 119 nM

SMILES: Cc1ccc(NC(=O)Nc2ccc(OC(F)(F)F)cc2F)c(Oc2ccccc2[C@@]2(C(F)(F)F)CCO2)n1 [S113]
- IC50 (P2Y1 receptor; [5]): 34 nM

SMILES: Cc1ccc(NC(=O)Nc2ccc(Cl)cc2F)c(Oc2ccccc2[C@@]2(C(F)(F)F)CCO2)n1 [S114]
- IC50 (P2Y1 receptor; [5]): 41 nM

SMILES: CC(C)c1ccc(NC(=O)Nc2cccnc2Oc2ccccc2[C@@]2(C(F)(F)F)CCO2)c(F)c1 [S124]
- IC50 (P2Y1 receptor; [5]): 20 nM

SMILES: O=C(Nc1ccc(OC(F)(F)F)cc1)Nc1cccnc1Oc1ccccc1[C@@]1(C(F)(F)F)CCO1 [drawing 315]
- IC50 (P2Y1 receptor; [3]): 68 nM
- Kp at 24 h [1, 6]: 3.3
- Kp at 2 h [1, 7]: 2.8
- Kp at 24 h [1, 8]: 2.6

SMILES: O=C(Nc1ccc(OC(F)(F)F)cc1)Nc1cccnc1Oc1ccccc1[C@]1(C(F)(F)F)CCO1 [drawing 316]
- IC50 (P2Y1 receptor; [3]): 119 nM
- Kp at 24 h [1, 6]: 3.1
- Kp at 2 h [1, 7]: 3.2
- Kp at 24 h [1, 8]: 2.4

SMILES: Cc1ccc(NC(=O)Nc2ccc(OC(F)(F)F)cc2F)c(Oc2ccccc2[C@@]2(C(F)(F)F)CCO2)n1 [drawing 319]
- IC50 (P2Y1 receptor; [3]): 34 nM
- Kp at 24 h [1, 8]: 1.7

SMILES: Cc1ccc(NC(=O)Nc2ccc(Cl)cc2F)c(Oc2ccccc2[C@@]2(C(F)(F)F)CCO2)n1 [drawing 320]
- IC50 (P2Y1 receptor; [3]): 41 nM
- Kp at 24 h [1, 8]: 1.3
